Source: ChEMBL document CHEMBL3885861, “Open TG-GATES”

Species on record: Rattus norvegicus
Assay: Open TG-GATES - Regimen: Daily Repeat
Type: toxicity, organism-based, Sprague-Dawley
Set-up: regimen Daily Repeat, gender Male, age 6 weeks
Settings: in vivo, po, 0 mg/kg, route gavage, dose level Control; for APTT / Bas / Eos / Fbg / Hb / Ht / Lym / MCH / MCHC / MCV / Mono / Neu / PT / Plat / RBC / Ret / WBC: tissue Blood; for KIDNEY_L / KIDNEY_R / KIDNEY_TOTAL: tissue Kidney; for LIVER: tissue Liver; for A/G / ALP / ALT / AST / BUN / CRE / Ca / Cl / DBIL / GLC / IP / K / LDH / Na / PL / RALB / TBIL / TC / TG / TP / gamma-GTP: tissue Plasma

CC(=O)Nc1ccc2c(c1)Cc1ccccc1-2 [2-ACETYLAMINOFLUORENE]
TERMINAL_BW (72 h, time 3 day): 245.3 g | APTT (72 h, time 3 day): 19.9 s | Bas (72 h, time 3 day): 1% | Eos (72 h, time 3 day): 1.2% | Fbg (72 h, time 3 day): 227.2 mg/dL | Hb (72 h, time 3 day): 14 g/dL | Ht (72 h, time 3 day): 40.4% | Lym (72 h, time 3 day): 82.2% | MCH (72 h, time 3 day): 21.5 pg | MCHC (72 h, time 3 day): 34.6% | MCV (72 h, time 3 day): 62.3 fL | Mono (72 h, time 3 day): 3% | Neu (72 h, time 3 day): 12.6% | PT (72 h, time 3 day): 11.3 s | Plat (72 h, time 3 day): 127 x10_4/uL | RBC (72 h, time 3 day): 648.4 x10_4/ul | Ret (72 h, time 3 day): 5.8% | WBC (72 h, time 3 day): 105.6 x10_2/uL | KIDNEY_L (72 h, time 3 day): 1.1 g | KIDNEY_R (72 h, time 3 day): 1.1 g | KIDNEY_TOTAL (72 h, time 3 day): 2.2 g | LIVER (72 h, time 3 day): 12.2 g | A/G (72 h, time 3 day): 1.6 | ALP (72 h, time 3 day): 913.6 IU/L | ALT (72 h, time 3 day): 38.2 IU/L | AST (72 h, time 3 day): 73.2 IU/L | BUN (72 h, time 3 day): 15.2 mg/dL | CRE (72 h, time 3 day): 0.5 mg/dL | Ca (72 h, time 3 day): 11 mg/dL | Cl (72 h, time 3 day): 101.8 meq/L | DBIL (72 h, time 3 day): 0.1 mg/dL | GLC (72 h, time 3 day): 208.4 mg/dL | IP (72 h, time 3 day): 8 mg/dL | K (72 h, time 3 day): 4.1 meq/L | LDH (72 h, time 3 day): 217.2 IU/L | Na (72 h, time 3 day): 141.2 meq/L | PL (72 h, time 3 day): 163 mg/dL | RALB (72 h, time 3 day): 3.6 g/dL | TBIL (72 h, time 3 day): 0.2 mg/dL | TC (72 h, time 3 day): 81.8 mg/dL | TG (72 h, time 3 day): 104.6 mg/dL | TP (72 h, time 3 day): 5.8 g/dL | gamma-GTP (72 h, time 3 day): 1.2 IU/L | TERMINAL_BW ([…], time 7 day): 278.1 g | TERMINAL_BW ([…], time 14 day): 334.5 g | TERMINAL_BW ([…], time 28 day): 417 g | APTT ([…], time 7 day): 19.7 s | Bas ([…], time 7 day): 0.4% | Eos ([…], time 7 day): 1% | Fbg ([…], time 7 day): 242 mg/dL | Hb ([…], time 7 day): 14.1 g/dL | Ht ([…], time 7 day): 39.9% | Lym ([…], time 7 day): 82.8% | MCH ([…], time 7 day): 21.9 pg | MCHC ([…], time 7 day): 35.2% | MCV ([…], time 7 day): 62.1 fL | Mono ([…], time 7 day): 2.4% | Neu ([…], time 7 day): 13% | PT ([…], time 7 day): 11.7 s | Plat ([…], time 7 day): 138.4 x10_4/uL | RBC ([…], time 7 day): 643 x10_4/ul | Ret ([…], time 7 day): 5.6% | WBC ([…], time 7 day): 114.7 x10_2/uL | APTT ([…], time 14 day): 21 s | Bas ([…], time 14 day): 0.8% | Eos ([…], time 14 day): 1% | Fbg ([…], time 14 day): 225.8 mg/dL | Hb ([…], time 14 day): 14.7 g/dL | Ht ([…], time 14 day): 42.3% | Lym ([…], time 14 day): 82.8% | MCH ([…], time 14 day): 20.5 pg | MCHC ([…], time 14 day): 34.7% | MCV ([…], time 14 day): 59 fL | Mono ([…], time 14 day): 2.2% | Neu ([…], time 14 day): 12.6% | PT ([…], time 14 day): 11.8 s | Plat ([…], time 14 day): 117.3 x10_4/uL | RBC ([…], time 14 day): 716.4 x10_4/ul | Ret ([…], time 14 day): 4% | WBC ([…], time 14 day): 96.8 x10_2/uL | APTT ([…], time 28 day): 20.8 s | Bas ([…], time 28 day): 0.8% | Eos ([…], time 28 day): 1% | Fbg ([…], time 28 day): 215.8 mg/dL | Hb ([…], time 28 day): 14.9 g/dL | Ht ([…], time 28 day): 43% | Lym ([…], time 28 day): 82.4% | MCH ([…], time 28 day): 19.8 pg | MCHC ([…], time 28 day): 34.7% | MCV ([…], time 28 day): 57.1 fL | Mono ([…], time 28 day): 2.2% | Neu ([…], time 28 day): 13.2% | PT ([…], time 28 day): 11.6 s | Plat ([…], time 28 day): 104.4 x10_4/uL | RBC ([…], time 28 day): 752.2 x10_4/ul | Ret ([…], time 28 day): 2.6% | WBC ([…], time 28 day): 122.5 x10_2/uL | KIDNEY_L ([…], time 7 day): 1.2 g | KIDNEY_R ([…], time 7 day): 1.2 g | KIDNEY_TOTAL ([…], time 7 day): 2.4 g | KIDNEY_L ([…], time 14 day): 1.3 g | KIDNEY_R ([…], time 14 day): 1.3 g | KIDNEY_TOTAL ([…], time 14 day): 2.6 g | KIDNEY_L ([…], time 28 day): 1.5 g | KIDNEY_R ([…], time 28 day): 1.5 g | KIDNEY_TOTAL ([…], time 28 day): 3 g | LIVER ([…], time 7 day): 12.4 g | LIVER ([…], time 14 day): 14.9 g | LIVER ([…], time 28 day): 16.7 g | A/G ([…], time 7 day): 1.4 | ALP ([…], time 7 day): 914.8 IU/L | ALT ([…], time 7 day): 35.8 IU/L | AST ([…], time 7 day): 65 IU/L | BUN ([…], time 7 day): 13.6 mg/dL | CRE ([…], time 7 day): 0.4 mg/dL | Ca ([…], time 7 day): 10.7 mg/dL | Cl ([…], time 7 day): 103.2 meq/L | DBIL ([…], time 7 day): 0.076 mg/dL | GLC ([…], time 7 day): 201.2 mg/dL | IP ([…], time 7 day): 7.5 mg/dL | K ([…], time 7 day): 4.1 meq/L | LDH ([…], time 7 day): 188 IU/L | Na ([…], time 7 day): 140.4 meq/L | PL ([…], time 7 day): 136.4 mg/dL | RALB ([…], time 7 day): 3.4 g/dL | TBIL ([…], time 7 day): 0.1 mg/dL | TC ([…], time 7 day): 64.8 mg/dL | TG ([…], time 7 day): 96.2 mg/dL | TP ([…], time 7 day): 5.7 g/dL | gamma-GTP ([…], time 7 day): 1.4 IU/L | A/G ([…], time 14 day): 1.4 | ALP ([…], time 14 day): 880.2 IU/L | ALT ([…], time 14 day): 35 IU/L | AST ([…], time 14 day): 64.4 IU/L | BUN ([…], time 14 day): 15.4 mg/dL | CRE ([…], time 14 day): 0.5 mg/dL | Ca ([…], time 14 day): 10.7 mg/dL | Cl ([…], time 14 day): 103.4 meq/L | DBIL ([…], time 14 day): 0.1 mg/dL | GLC ([…], time 14 day): 196.2 mg/dL | IP ([…], time 14 day): 7.3 mg/dL | K ([…], time 14 day): 4.1 meq/L | LDH ([…], time 14 day): 169.6 IU/L | Na ([…], time 14 day): 141.6 meq/L | PL ([…], time 14 day): 143.2 mg/dL | RALB ([…], time 14 day): 3.5 g/dL | TBIL ([…], time 14 day): 0.2 mg/dL | TC ([…], time 14 day): 69.6 mg/dL | TG ([…], time 14 day): 138 mg/dL | TP ([…], time 14 day): 5.9 g/dL | gamma-GTP ([…], time 14 day): 1.2 IU/L | A/G ([…], time 28 day): 1.4 | ALP ([…], time 28 day): 611.4 IU/L | ALT ([…], time 28 day): 30.8 IU/L | AST ([…], time 28 day): 61.8 IU/L | BUN ([…], time 28 day): 19 mg/dL | CRE ([…], time 28 day): 0.4 mg/dL | Ca ([…], time 28 day): 10.4 mg/dL | Cl ([…], time 28 day): 102.4 meq/L | DBIL ([…], time 28 day): 0.092 mg/dL | GLC ([…], time 28 day): 265 mg/dL | IP ([…], time 28 day): 7.2 mg/dL | K ([…], time 28 day): 3.8 meq/L | LDH ([…], time 28 day): 194.4 IU/L | Na ([…], time 28 day): 140.4 meq/L | PL ([…], time 28 day): 143.4 mg/dL | RALB ([…], time 28 day): 3.4 g/dL | TBIL ([…], time 28 day): 0.1 mg/dL | TC ([…], time 28 day): 69.8 mg/dL | TG ([…], time 28 day): 107.8 mg/dL | TP ([…], time 28 day): 5.8 g/dL | gamma-GTP ([…], time 28 day): 1 IU/L
